The results in this text go back to US6323202A, “HSV primase inhibitors” (Boehringer Ingelheim (Canada) Ltd., priority 2000, dated 2001).

The test system of one test is HSV-1. Kind of test: Inhibition of Herpes Simplex Virus (HSV-1) Replication in Cell Culture (ELISA of glycoprotein C). As to conditions: Human alphaherpesvirus 1; viral replication in BHK-21 cells, MOI 0.05 PFU/cell, 24 h, 37°. Type of test: cell-based, HSV-1 strain F or KOS. The procedure:
ii) Inhibition of Herpes Simplex Virus (HSV-1) Replication in Cell Culture
Assay: BHK-21 cells clone 13 (ATCC CCL10) were incubated for two days in 850 cm^2 roller bottles (2×10^7 cells/bottle) with α-MEM medium (Gibco Canada Inc., Burlington, Ontario, Canada) supplemented with 8% (v/v) fetal bovine serum (FBS, Gibco Canada, Inc.). The cells were trypsinized and then 3,000 cells in 100 μL of fresh medium were transferred into each well of a 96-well microtiter plate. The cells were incubated at 37° for a period of 3 days to reach a density of 50,000 cells per well. The cells were washed twice with 100 μL of α-MEM supplemented with 2% heat inactivated FBS and incubated for 1-2 h in 100 μL of the same medium.
Thereafter, the cells were infected with HSV-1 strain F or KOS (multiplicity of infection=0.05 PFU/cell) in 50 μL of α-MEM supplemented with 2% heat inactivated FBS. Following one hour of virus absorption at 37°, the medium was removed and the cells were washed with α-MEM supplemented with 2% heat inactivated FBS (2×100 μL). The cells were incubated with or without 100 μL of the appropriate concentration of test reagent in α-MEM medium supplemented with 2% heat inactivated FBS. After 24 h of incubation at 37°, the extent of viral replication was determined by an ELISA assay; for instance, the following assay that detects the late glycoprotein C of HSV-1.
Cells were fixed in the microtiter plate with 100 μL of 0.063% glutaraldehyde in phosphate buffered saline for 30 min at room temperature. The microtiter plate was then washed once with casein blocking solution and blocked with 200 μL of the same solution for 1 h at room temperature. Thereafter, 100 μL of mAb C11 recognizing the glycoprotein C of HSV-1 (see E. Trybala et al., Journal of General Virology, 1994, 75, 743) was added to each well for 2 h at room temperature. The plate was washed three times with phosphate buffered saline containing 0.05% polyoxyethylene (20) sorbitan monooleate. The cells were incubated with 100 μL of sheep anti-mouse IgG horseradish peroxidase for 1 h at room temperature in the dark.
The plate was washed three times with 200 μL of the above-noted phosphate buffer saline preparation, and then once with 0.1 M sodium citrate (pH 4.5). Thereafter, 100 μL of orthophenylenediamine dihydrochloride (OPD, Gibco, Canada Inc.) was added to each well. The plate was agitated on a microplate shaker for 30 min in the dark. Color development was monitored at 450 nm using a microplate spectrophotometer.
SAS was used to calculate % inhibition of viral replication and to generate EC50 values.
(§1) Results for assay i are expressed under the heading HSV-1, IC50 (μM). Results for assay ii are expressed under the heading HSV-1, EC50 (μM).

Test [1] addresses T1, HSV-1 helicase-primase (UL5(K103A) helicase-primase holoenzyme) (Human herpesvirus 1, UniProt P10189+P10236, K103A).
T1 construct: made in house; host or cells: recombinant baculovirus expression (insect cells, by own knowledge of the cited Dodson 1989 and Dracheva 1995 methods)
Description: HSV-1 Helicase-primase DNA Primase Assay (incorporation of [3H]GTP into primers). Type of test: biochemical.
Description: i) HSV-1 Helicase-primase DNA Primase Assay
The HSV-1 helicase-primase enzyme used for primase assays was expressed and isolated as described (M. S. Dodson et al., J. Biol. Chem. 1989, 264, 20835; S. Dracheva et al. J. Biol. Chem. 1995, 270, 14148) except that the UL5-expressing baculovirus was changed to express UL5(K103A). The resulting altered enzyme contained no detectable helicase, DNA-dependent ATPase, or ATPase activity. However, DNA primase activity was increased over the wild type enzyme.
Assay: DNA primase activity was measured by the incorporation of [^3 H]GTP into newly synthesized primers by the UL5(K103A) helicase-primase holoenzyme. Assays were performed using as template the 50-mer single-stranded DNA oligonucleotide 5'-CTTCTTCGGT TCCGACTAC CCCTCCCGACTGCCTATGATGTTTATCCTTT G-3'OH (SEQ ID No. 1) derived from the preferred priming site on .phi.X174 single-stranded DNA [D. J. Teney et al., J. Biol. Chem. 1995, 270, 9129-9136]. The reaction mixtures (60 μl) contained […] pH 8.0, 5 mM magnesium chloride, 1 mM DTT, 0.01 % CHAPS, 100 μM each of ATP, GTP, CTP, 10 μM [biotin]UTP, 1 μCi [^3 H]GTP (specific activity 30.8 Ci/mmol), 1 μg of the 50-mer template and 45 μg/ml of the UL5(K103A)-altered helicase-primaseholoenzyme. The samples were incubated at 34° for 45 min in a circulating waterbath and reactions were quenched by the addition of 20 μl 0.5 M EDTA pH 8. Then, 50 μl of the reaction mixtures were transferred to Millipore filtration plates (MHVB N45, 0.45 μm) containing 40 μl of immobilized avidin beads (Pierce). After incubating 30 min at room temperature on a microplate shaker, the wells were washed five times with 300 μl wash buffer (50 mM 4-(2-hydroxyethyl)-1-piperazineethanesulfonic acid (HEPES) pH 7.5 and 0.5 M NaCl) and the filter plates were aspirated to dryness. The radioactivity in each well was counted using the Topcount® after adding 100 μl Microscint® 20 (Camberra-Packard Canada, Mississauga, Ontario, Canada) to each well.
In all cases, compounds were tested in three-fold serial dilutions and the results were expressed as percent inhibition as compared to control reactions without inhibitor. IC50 (i.e., inhibitor concentration that yielded 50% inhibition of enzyme activity) values were determined from dose-response curves using SAS software (SAS Institute, Cary, N.C., USA). A non-linear regression analysis based on the Hill equation, M. Dixon and E.C. Webb Enzymes, Academic Press: New York, N.Y., USA, 1979, was applied to the percent inhibition-concentration data.
as §1

A value given as a limit tells only on which side of the number the result lay.

T1 sequence (P10189 whole entry, looked up, stated change not applied): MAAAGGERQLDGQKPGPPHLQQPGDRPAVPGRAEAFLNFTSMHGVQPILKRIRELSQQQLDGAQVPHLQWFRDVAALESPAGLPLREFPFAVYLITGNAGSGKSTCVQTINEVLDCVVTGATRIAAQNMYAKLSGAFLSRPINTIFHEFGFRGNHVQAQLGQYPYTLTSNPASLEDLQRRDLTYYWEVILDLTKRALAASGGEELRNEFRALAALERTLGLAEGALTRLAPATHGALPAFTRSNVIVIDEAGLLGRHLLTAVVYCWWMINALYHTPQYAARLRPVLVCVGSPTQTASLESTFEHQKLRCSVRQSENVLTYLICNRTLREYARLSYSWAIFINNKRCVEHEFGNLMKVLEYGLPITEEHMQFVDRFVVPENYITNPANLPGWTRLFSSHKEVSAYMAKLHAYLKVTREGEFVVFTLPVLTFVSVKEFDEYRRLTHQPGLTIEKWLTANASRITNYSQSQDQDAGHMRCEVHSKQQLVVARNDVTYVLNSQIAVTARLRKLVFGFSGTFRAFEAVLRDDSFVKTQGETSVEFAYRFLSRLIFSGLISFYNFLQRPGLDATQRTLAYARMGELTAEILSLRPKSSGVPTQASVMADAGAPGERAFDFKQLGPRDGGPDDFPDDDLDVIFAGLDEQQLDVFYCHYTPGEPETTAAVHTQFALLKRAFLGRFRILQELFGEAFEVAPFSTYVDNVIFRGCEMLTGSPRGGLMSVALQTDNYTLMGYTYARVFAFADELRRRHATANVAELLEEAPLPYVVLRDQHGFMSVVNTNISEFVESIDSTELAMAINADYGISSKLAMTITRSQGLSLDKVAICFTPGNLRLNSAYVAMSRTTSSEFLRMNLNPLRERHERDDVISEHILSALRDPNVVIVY
T1 sequence (P10192 whole entry, stated change not applied, further chain): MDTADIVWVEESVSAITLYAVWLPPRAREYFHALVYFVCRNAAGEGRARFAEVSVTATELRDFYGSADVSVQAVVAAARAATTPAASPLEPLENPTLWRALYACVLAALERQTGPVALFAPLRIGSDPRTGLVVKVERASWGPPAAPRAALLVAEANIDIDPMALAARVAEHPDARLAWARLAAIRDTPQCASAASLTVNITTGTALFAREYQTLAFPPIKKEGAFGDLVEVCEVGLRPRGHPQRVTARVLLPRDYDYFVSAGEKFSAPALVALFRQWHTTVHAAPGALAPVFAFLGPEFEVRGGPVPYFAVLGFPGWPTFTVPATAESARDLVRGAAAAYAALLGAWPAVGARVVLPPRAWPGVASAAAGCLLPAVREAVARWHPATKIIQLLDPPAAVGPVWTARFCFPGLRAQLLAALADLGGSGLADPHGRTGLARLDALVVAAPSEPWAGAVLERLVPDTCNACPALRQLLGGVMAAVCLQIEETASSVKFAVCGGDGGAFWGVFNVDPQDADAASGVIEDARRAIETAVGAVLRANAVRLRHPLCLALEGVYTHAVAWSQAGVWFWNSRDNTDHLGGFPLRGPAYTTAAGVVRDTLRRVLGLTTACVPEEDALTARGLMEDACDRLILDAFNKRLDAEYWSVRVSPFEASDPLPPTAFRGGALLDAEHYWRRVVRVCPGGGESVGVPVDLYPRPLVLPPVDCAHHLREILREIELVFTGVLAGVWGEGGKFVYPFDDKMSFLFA
T1 sequence (P10236 whole entry, stated change not applied): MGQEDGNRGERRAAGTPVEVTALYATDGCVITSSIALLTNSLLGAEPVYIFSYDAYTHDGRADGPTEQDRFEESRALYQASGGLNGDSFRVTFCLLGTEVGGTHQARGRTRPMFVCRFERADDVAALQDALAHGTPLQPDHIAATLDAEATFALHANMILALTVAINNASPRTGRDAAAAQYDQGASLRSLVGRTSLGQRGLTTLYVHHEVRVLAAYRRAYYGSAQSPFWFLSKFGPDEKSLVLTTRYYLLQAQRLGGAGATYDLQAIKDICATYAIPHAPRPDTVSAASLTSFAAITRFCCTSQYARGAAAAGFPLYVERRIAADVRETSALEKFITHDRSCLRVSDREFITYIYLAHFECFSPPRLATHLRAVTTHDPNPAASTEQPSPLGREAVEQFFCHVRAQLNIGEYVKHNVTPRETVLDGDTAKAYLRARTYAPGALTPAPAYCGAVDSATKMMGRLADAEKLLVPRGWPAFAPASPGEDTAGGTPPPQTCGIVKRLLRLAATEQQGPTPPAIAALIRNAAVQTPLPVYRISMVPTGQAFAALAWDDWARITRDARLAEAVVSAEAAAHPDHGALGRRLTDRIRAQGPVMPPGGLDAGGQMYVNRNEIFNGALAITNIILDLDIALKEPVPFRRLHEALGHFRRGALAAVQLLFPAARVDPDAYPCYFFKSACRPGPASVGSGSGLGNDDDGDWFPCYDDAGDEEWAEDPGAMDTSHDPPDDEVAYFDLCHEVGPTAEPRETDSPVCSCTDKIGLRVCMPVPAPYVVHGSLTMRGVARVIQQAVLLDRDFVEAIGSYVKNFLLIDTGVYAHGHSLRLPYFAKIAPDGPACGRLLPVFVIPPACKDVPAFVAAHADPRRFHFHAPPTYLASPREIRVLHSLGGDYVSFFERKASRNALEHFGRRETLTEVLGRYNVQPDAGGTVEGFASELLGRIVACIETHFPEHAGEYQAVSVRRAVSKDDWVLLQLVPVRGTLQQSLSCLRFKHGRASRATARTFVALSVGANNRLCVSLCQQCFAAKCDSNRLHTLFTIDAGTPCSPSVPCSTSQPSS

Take `CCCCC(C(=O)OCC)C(=O)c1cccc(NC(=O)c2ccc(Cl)cc2O)c1` (stereo not drawn) [Entry 1, Ethyl α-butyl-3-{(4chloro2-hydroxybenzoyl)amino}-β-oxobenzenepropanoate]: in the test on HSV-1, the EC50 was 1000 to 100000 nM. Moreover, the IC50 in test [1] was 1000 to 100000 nM.

In the test with HSV-1, `CC(=O)c1cccc(NC(=O)c2ccc(Cl)cc2O)c1` [Entry 2] had an EC50 of 1000 to 100000 nM. The same compound registered an IC50 in test [1] of 1000 to 100000 nM.

As to `CCOC(=O)CC(=O)c1cccc(NC(=O)c2ccc(Cl)cc2O)c1` [Entry 3], in the test on HSV-1, the EC50 was 1000 to 100000 nM. In test [1], the IC50 fell in the range of 1000 to 100000 nM.

Take `CCCC(=O)c1cccc(NC(=O)c2ccc(Cl)cc2O)c1` [Entry 4]: in the test on HSV-1, the concentration giving a half-maximal response (EC50) lay in the range of 1000 to 100000 nM. For the same compound, in test [1], the IC50 fell in the range of 1000 to 100000 nM.

Turning to `O=C(Cc1ccccc1)c1cccc(NC(=O)c2ccc(Cl)cc2O)c1` [Entry 5], the EC50 in the test with HSV-1 is 1000 to 100000 nM. The IC50 in test [1] was 1000 to 100000 nM.

With `O=C(Nc1cccc(C(=O)C2CCCCC2)c1)c1ccc(Cl)cc1O` [Entry 6], the EC50 in the test on HSV-1 was 1000 to 100000 nM. In test [1], this compound returned an IC50 of 1000 to 100000 nM.

In test [1], `O=C(CCc1ccccc1)c1cccc(NC(=O)c2ccc(Cl)cc2O)c1` [Entry 7] had an IC50 of 1000 to 100000 nM.

In the test with HSV-1, `O=C(OCc1ccccn1)c1cccc(NC(=O)c2ccc(Cl)cc2O)c1` [Entry 8] displayed an EC50 of 1000 to 100000 nM. Moreover, the IC50 in test [1] is under 1000 nM.

As to `O=C(OCc1ccccc1)c1cccc(NC(=O)c2ccc(Cl)cc2O)c1` [Entry 9], the IC50 in test [1] is under 1000 nM.

With `O=C(Nc1cccc(C(=O)N2CCCCC2)c1)c1ccc(Cl)cc1O` [Entry 10], the concentration for a half-maximal effect (EC50) in the test with HSV-1 was under 1000 nM. The IC50 in test [1] is over 100000 nM.

For `CN(CCc1ccccn1)C(=O)c1cccc(NC(=O)c2ccc(Cl)cc2O)c1` [Entry 11], the IC50 in test [1] is over 100000 nM.

In the test with HSV-1, `CCCCN(C)C(=O)c1cccc(NC(=O)c2ccc(Cl)cc2O)c1` [Entry 12, N-Butyl-N-methyl-3-{(4-chloro-2-hydroxybenzoyl)amino)benzamide] came in with an EC50 of under 1000 nM. Further, in test [1], the IC50 is over 100000 nM.

In turn, `O=C(NCC1CCCCC1)c1cccc(NC(=O)c2ccc(Cl)cc2O)c1` [Entry 13] yielded an EC50 in the test on HSV-1 of 1000 to 100000 nM. The IC50 in test [1] is under 1000 nM.

In turn, `O=C(NCCc1ccccn1)c1cccc(NC(=O)c2ccc(Cl)cc2O)c1` [Entry 14] had an EC50 in the test with HSV-1 of 1000 to 100000 nM. Besides, the IC50 in test [1] is 1000 to 100000 nM.

With `O=C(NCc1ccccc1)c1cccc(NC(=O)c2ccc(Cl)cc2O)c1` [Entry 15], the EC50 with HSV-1 lay within 1000 to 100000 nM. Also, in test [1], the IC50 was under 1000 nM.

In the test on HSV-1, `CCCCNC(=O)c1cccc(NC(=O)c2ccc(Cl)cc2O)c1` [Entry 16] had a 50% effective concentration (EC50) of 1000 to 100000 nM. This compound also returned an IC50 in test [1] of 1000 to 100000 nM.

`O=C(NCc1ccccn1)c1cccc(NC(=O)c2ccc(Cl)cc2O)c1` [Entry 17] returned an EC50 with HSV-1 of 1000 to 100000 nM. In test [1], this compound yielded an IC50 of under 1000 nM.

Regarding `O=C(NC1CCCCC1)c1cccc(NC(=O)c2ccc(Cl)cc2O)c1` [Entry 18], the EC50 with HSV-1 was under 1000 nM. The compound also came in with an IC50 in test [1] of 1000 to 100000 nM.

In turn, `O=C(NCc1ccncc1)c1cccc(NC(=O)c2ccc(Cl)cc2O)c1` [Entry 19] displayed an IC50 in test [1] of 1000 to 100000 nM.

`CCCCCC(=O)c1cccc(NC(=O)c2cccc(Cl)c2O)c1` [Entry 101]: in the test on HSV-1, the EC50 is 1000 to 100000 nM. The compound also had an IC50 in test [1] of 1000 to 100000 nM.

Compound `Cc1ccc(C(=O)Nc2cccc(C(=O)NCc3ccccc3)c2)c(O)c1` [Entry 102] showed an IC50 in test [1] of under 1000 nM.

In turn, `COc1ccc(C(=O)Nc2cccc(C(=O)NCc3ccccc3)c2)c(O)c1` [Entry 103] came in with an IC50 in test [1] of under 1000 nM.

As to `[N-]=[N+]=Nc1ccc(C(=O)Nc2cccc(C(=O)NCc3ccccc3)c2)c(O)c1` [Entry 104], the IC50 in test [1] is under 1000 nM.

In turn, `Nc1ccccc1C(=O)Nc1cccc(C(=O)NCc2ccccc2)c1` [Entry 105] returned an IC50 in test [1] of over 100000 nM.

In the case of `[N-]=[N+]=Nc1cc(O)c(C(=O)Nc2cccc(C(=O)NCc3ccccc3)c2)cc1I` [Entry 106], in test [1], the IC50 is under 1000 nM.

For the compound `Nc1cc(Cl)ccc1C(=O)Nc1cccc(C(=O)NCc2ccccc2)c1` [Entry 107], the IC50 in test [1] was over 100000 nM.

In test [1], `Nc1ccc(C(=O)Nc2cccc(C(=O)NCc3ccccc3)c2)c(O)c1` [Entry 108] registered an IC50 of 1000 to 100000 nM.
